PMC10827794 (2024)

Legend:
[1] = tested on: WT_5.1R (RNA, G4) GCGAAAGGGGAAGGCGGGCGGUGGGGCAGGGGGCCUGAAGCGGCCUAGCUGUAGCUGACUGCA; test: fluorescence enhancement; details: no added monovalent cation; 10 mM Tris-Cl pH 7.5, 0.01 mM EDTA, 25 °C; 2 μM RNA, 2 μM ThT; ~160-fold enhancement
[2] = tested on: WT_5.1 (Oligo 5.1) (DNA, G4) TAGAGGACAGCGGGGAAGGCGGGCGGTGGGGCAGGGGGCCTGAAGCGGCGGTACCGGTGCTGGCGGCGGCAGCTGAGGCC; test: fluorescence enhancement; details: 1 μM DNA, 2 μM TO
[3] = tested on: WT_14.1 (Oligo 14.1) (DNA, G4) AAAGGGAAGTATGGCTGGTGTACCGGGAGCAAGGGAGAGGGAAGGAGGGGCCAAATTAATAGGCCCACGGT; test: fluorescence enhancement; details: 1 μM DNA, 2 μM TO
[4] = tested on: WT_14.2 (Oligo 14.2) (DNA, G4) ATAGAGAGTGATGGGGAGGGGGTGAGTGGAGGGTCAAGGAAGGCCCTCCCTGAGGTGGTGTTATTTGACGGGGGTCCACA; test: fluorescence enhancement; details: 1 μM DNA, 2 μM TO
[5] = tested on: WT_40.1 (Oligo 40.1) (DNA, G4) GGGGGCGGGGGCGGGGGTGGGGGGAAGAAAAATTCCTAGCTGTAGCTGACTGCA; test: fluorescence enhancement; details: 10 mM Tris-Cl pH 7.5, 25 °C, 1 μM DNA, 2 μM TO
[6] = tested on: Template_5.2 with 5.2 primer (DNA, G4) CCGCGCGGTGAGTCTAGGGCCTGGCACGACCCCTCTAGGGCGGCGTAATGTCCAGACCCA/CGTGGGTCTGGACAT; test: polymerase stop (primer extension); details: KCl, 1 mM MgCl2; 40 mM Tris-HCl pH 8.0, 40 °C; ligand 0-20 μM; truncated products
[7] = tested on: Template_8.1 with 8.1 primer (DNA, G4) CTGCCTGACAAGGGCTAGGGGGAGATCTGTGTTGGGTGACCAGGGCCATAAGTAAATTTCATCATACT/AGTATGATGAAATTTACTTATGG; test: polymerase stop (primer extension); details: KCl, 1 mM MgCl2; 40 mM Tris-HCl pH 8.0, 40 °C; ligand 0-20 μM; truncated products
[8] = tested on: WT_5.1 (Oligo 5.1) (DNA, G4) TAGAGGACAGCGGGGAAGGCGGGCGGTGGGGCAGGGGGCCTGAAGCGGCGGTACCGGTGCTGGCGGCGGCAGCTGAGGCC; test: fluorescent intercalator displacement (G4-FID); details: TO displaced; ligand 0-2.5 μM
[9] = tested on: WT_5.2 (Oligo 5.2) (DNA, G4) CCGCGCGGTGAGTCTAGGGCCTGGCACGACCCCTCTAGGGCGGCGTAATGTCCAGACCCA; test: fluorescent intercalator displacement (G4-FID); details: TO displaced; ligand 0-2.5 μM
[10] = tested on: WT_5.3 (Oligo 5.3) (DNA, G4) CGGCCAGCCTGCCCGTGGGGGGGCCAGGGGAAGCCGCCCGTCTGGGACGTGGGGTCCCCA; test: fluorescent intercalator displacement (G4-FID); details: TO displaced; ligand 0-2.5 μM
[11] = tested on: WT_8.1 (Oligo 8.1) (DNA, G4) CTGCCTGACAAGGGCTAGGGGGAGATCTGTGTTGGGTGACCAGGGCCATA; test: fluorescent intercalator displacement (G4-FID); details: TO displaced; ligand 0-2.5 μM
[12] = tested on: WT_14.1 (Oligo 14.1) (DNA, G4) AAAGGGAAGTATGGCTGGTGTACCGGGAGCAAGGGAGAGGGAAGGAGGGGCCAAATTAATAGGCCCACGGT; test: fluorescent intercalator displacement (G4-FID); details: TO displaced; ligand 0-2.5 μM
[13] = tested on: WT_14.2 (Oligo 14.2) (DNA, G4) ATAGAGAGTGATGGGGAGGGGGTGAGTGGAGGGTCAAGGAAGGCCCTCCCTGAGGTGGTGTTATTTGACGGGGGTCCACA; test: fluorescent intercalator displacement (G4-FID); details: TO displaced; ligand 0-2.5 μM

Cc1ccc2c(c1)sc(-c1ccc(N(C)C)cc1)[n+]2C
binding [1]: yes

CN1C(=Cc2cc[n+](C)c3ccccc23)Sc2ccccc21
binding [2]: yes
binding [3]: yes
binding [4]: yes
binding ([5]; 100 mM KCl, enhancement lower than without K+): yes
binding ([5]; no added monovalent cation, ~330-fold enhancement): yes

C[n+]1ccc(-c2c3nc(c(-c4cc[n+](C)cc4)c4ccc([nH]4)c(-c4cc[n+](C)cc4)c4nc(c(-c5cc[n+](C)cc5)c5ccc2[nH]5)C=C4)C=C3)cc1
binding [6]: yes
binding [7]: yes
DC50 [8]: 0.8800 µM
DC50 [9]: 1.039 µM
DC50 [10]: 0.9563 µM
DC50 [11]: 0.4791 µM
DC50 [12]: 0.8977 µM
DC50 [13]: 0.6296 µM
